The structures appear in SMILES notation. Read-outs that look alike come from different tables or passages of the source.

Experiment [1] concerns mitochondrial genome and DHFR gene of IMR-32 cells. Kind of experiment: Gene-specific Southern hybridisation assay of DNA adducts / virtual crosslinks. The note with it: for level of DNA adducts (percentage of double stranded DNA): IMR-32, Adriamycin alone, or Adriamycin with 25-fold excess of AN-9 (added 2 hr after or 2 hr before). It is filed as cell-based, human. The method, then: We sought to investigate the level of DNA adducts formed under various treatment conditions, since we speculated that the peculiar effectiveness of the Adriamycin/AN-9 combination might be due to increased levels of DNA damage in the form of DNA adducts. IMR-32 human neuroblastoma cells (A and B) and MCF-7 human breast adenocarcinoma cells (C and D) were treated with Adriamycin for 2 hr ([…] as shown) followed by a further 2 hr incubation with a 25-fold excess of AN-9 (▪), or treated with AN-9 for 2 hr followed by a further 4 hr incubation with Adriamycin (□). Genomic DNA was isolated using mild conditions (Cutts et al., 2001) and subjected to gene-specific Southern hybridisation analysis. For detection of the mitochondrial genome, DNA was restriction digested with BamHI, and unreacted or intercalated drug was removed by phenol/chloroform extraction and ethanol precipitation. Samples were resuspended in 60% formamide and heat denatured at 60° C. for 5 min. Samples were resolved electrophoretically through 0.8% agarose, transferred to nylon membranes and probed with mitochondrial RNA. The percentage of double stranded DNA was calculated by phosphorimage analysis; this correlates with adduct formation in the mitochondrial genome (A and C), since the adducts behave functionally as virtual interstrand crosslinks (Zeman et al., 1998; Cullinane et al., 2000). For detection of the DHFR gene, DNA was digested with HindIII and processed as described above; however, randomly primed DHFR DNA was used as the probe for Southern analysis (B and D). Data were derived from each of two separate blots of two biological experiments, and the values are represented as the mean±SE. […] This provides a biochemical basis for the synergistic/antagonistic cytotoxicity relationship.
It was known that the formation of Adriamycin adducts was highly time-dependent. To confirm that the adducts behave as classical Adriamycin adducts, and also to investigate the optimal conditions for adduct formation, a time course study was initiated. IMR-32 cells were treated with a combination of 4 μM Adriamycin and 100 μM AN-9 for 0-8 hr as described above. Phosphorimage analysis was used to quantitate the time-dependent formation of adducts in the mitochondrial genome (A) and DHFR gene (B).
In order to gain some understanding as to why synergy was greatest when AN-9 was added at the same time as, or after, Adriamycin, a time course of addition of AN-9 was studied. IMR-32 cells were exposed to 4 μM Adriamycin for 4 hr. […] Adduct/crosslinking levels are shown in FIG. 3 for both mitochondrial (A) and nuclear (B) DNA, using probes for mtDNA and the DHFR gene respectively. Phosphorimage analysis was used to quantitate the fraction of DS DNA, a measure of adduct formation, for each treatment condition. Adduct formation fluctuated greatly, and depended on a relatively small time frame within which AN-9 was added to cells. […] This enabled us to predict that if AN-9 was added shortly after Adriamycin in cytotoxicity assays, within say approximately 2 hr, then the Combination Index obtained would be even better than when the drugs were added simultaneously.
IMR-32 cells were exposed to Adriamycin (6 μm) for 4 hr, and AN-9 (125 μM) was added at varying times from 24 hr prior to Adriamycin addition (−24) to 2 hr after Adriamycin. Genomic DNA was extracted from cells and then processed for Southern analysis. Phosphorimage analysis was used for quantitation of the adducts in mtDNA (A) and the DHFR gene (B), and the results are shown in FIG. 4.

Experiment [2] has as its system HL-60 cells. The note with it: cited from earlier work.
Experiment [3] has as its system genomic DNA of IMR-32 cells. The note with it: for adduct levels compared to Adriamycin alone / relative effectiveness in activating adduct formation: 4 μM [14C] Adriamycin simultaneously with 100 μM aldehyde-releasing compound.
Procedure: IMR-32 cells were seeded into 3.5 cm petri dishes at a density of 7.5×10^5 cells/dish 24 hr prior to exposure to 41M [^14C]-Adriamycin for 4 hr. In other treatments 100 μM AN-9 was added at varying times: 2 hr prior to Adriamycin addition (−2); simultaneously (O); and 2 hr after Adriamycin (2). Cells were harvested, and the genomic DNA was isolated. Samples were then extracted twice with phenol and once with chloroform, and DNA was selectively precipitated from RNA by ammonium acetate precipitation. DNA pellets were resuspended in 100 μL TE buffer, and the concentration determined spectrophotometically at 260 nm. Aliquots of the genomic DNA (50 μL) were each added to 1 mL of Optiphase Hisafe scintillation cocktail, and the incorporation of [^14C]-labelled drug into the DNA was monitored using a Wallac 1410 Liquid Scintillation Counter.
IMR-32 cells were exposed to 6 μM [^14C]-Adriamycin alone (Adr) for 4 hr, or together with 125 μl AN-9 at varying times: 16 hr prior (−16), 2 hr prior (−2), simultaneously (0), and 2 hr after Adriamycin addition (2). […] Genomic DNA was extracted from the cells, and incorporation of radiolabelled drug was determined by scintillation counting to determine the level of [^14C] adducts per 10 kb.
Therefore, IMR-32 cells were treated with 4 μM [^14C] Adriamycin and were simultaneously treated with 100 μM of selected aldehyde-releasing compound. Cells were harvested, genomic DNA was extracted and scintillation analyses were performed as described above.
To test whether a greater fraction of Adriamycin can be utilized for adduct formation when the amount of available formaldehyde is increased, the concentration dependence of AN-9 was investigated. IMR-32 cells were treated with [^14C] Adriamycin at a constant concentration of 4 μM. AN-9 was added 2 hr after Adriamycin at concentrations ranging from 4 μM (1:1) to 500 μM (1:125), and the treatment continued for a further 2 hr. Cells were harvested, DNA was extracted and samples were analysed for incorporation of [^14C].
Adducts (lesions/10 kb) were determined by incubating IMR-32 cells in the presence of 2 μM [^14C]Adriamycin for 2 hr. followed by an additional 2 hr in the presence or absence of 100 μM AN-9. Semi-carbazide addition was at the same time as Adriamycin (ie 2 hr before AN-9). However, values in parentheses indicate that semi-carbazide addition was at the same time as AN-9 treatment (ie 2 hr after Adriamycin).
Adriamycin for 4 hr. These were simultaneously incubated with the indicated aldehyde-releasing compound at a final concentration of 100 μM. Samples were harvested as indicated previously and DNA was assessed for incorporation of radioactively labelled Adriamycin.
Experiment [4] relates to mitochondrial genome and DHFR gene of MCF-7 cells. Kind of experiment: Gene-specific Southern hybridisation assay of DNA adducts / virtual crosslinks. In kind it is cell-based, human. As to conditions: Adriamycin alone, or Adriamycin with 25-fold excess of AN-9 (added 2 hr after or 2 hr before). The method, then: We sought to investigate the level of DNA adducts formed under various treatment conditions, since we speculated that the peculiar effectiveness of the Adriamycin/AN-9 combination might be due to increased levels of DNA damage in the form of DNA adducts. IMR-32 human neuroblastoma cells (A and B) and MCF-7 human breast adenocarcinoma cells (C and D) were treated with Adriamycin for 2 hr ([…] as shown) followed by a further 2 hr incubation with a 25-fold excess of AN-9 (▪), or treated with AN-9 for 2 hr followed by a further 4 hr incubation with Adriamycin (□). Genomic DNA was isolated using mild conditions (Cutts et al., 2001) and subjected to gene-specific Southern hybridisation analysis. For detection of the mitochondrial genome, DNA was restriction digested with BamHI, and unreacted or intercalated drug was removed by phenol/chloroform extraction and ethanol precipitation. Samples were resuspended in 60% formamide and heat denatured at 60° C. for 5 min. Samples were resolved electrophoretically through 0.8% agarose, transferred to nylon membranes and probed with mitochondrial RNA. The percentage of double stranded DNA was calculated by phosphorimage analysis; this correlates with adduct formation in the mitochondrial genome (A and C), since the adducts behave functionally as virtual interstrand crosslinks (Zeman et al., 1998; Cullinane et al., 2000). […]

For experiment [5], the system named is IMR-32 cells. Kind of experiment: Cell viability assay, relative survival with semi-carbazide. In kind it is cell-based, human. As to conditions: IC50 relative to Adriamycin alone; 72 hr; presence or absence of 50 μM AN-9; no semi-carbazide. The method, then:
To obtain data representing relative survival, cells were seeded at a density of 1×10^4 per well and exposed to increasing concentrations of Adriamycin in the presence or absence of 50 μM AN-9 and/or semi-carbazide (0.25, 0.5 or 1.0 mM as indicated) for 72 hr. IC50 values for various combinations are shown as relative survival compared to Adriamycin alone. […] Overall, the critical role of formaldehyde was confirmed by reversal of formaldehyde-mediated effects by semi-carbazide, which reduced adduct formation and also abolished the cytotoxicity resulting from the interaction of AN-9 with Adriamycin.

Experiment [6] relates to DNA. The note with it: cited from earlier work.
[7] abbreviates: 4 μM [14C] Adriamycin, 500 μM AN-9 (1:125) added 2 hr after.
Setting [8] is: 6 μM [14C]-Adriamycin 4 hr, AN-9 16 hr prior to Adriamycin.

For the compound `C1N2CN3CN1CN(C2)C3` [hexamethylenetetramine, reference compound], the “facilitation of Adriamycin adduct formation” value in experiment [1] (15 μM Adriamycin, 4 hr later 0-2.5 mM hexamethylenetetramine, harvested after 8 hr) was “not as effective as AN-9”.
Take `CCCC(=O)OCOC(=O)C(C)(C)C` [AN-9, Pivaloyloxymethyl Butyrate]: in experiment [2], the histone acetylation entry is “induce histone acetylation” and the “time after exposure at which basal level of acetylation is re-established” value is 6 h. Besides, in experiment [1] (4 μM Adriamycin 4 hr, 100 μM AN-9 added shortly after Adriamycin, compared with simultaneous addition), the adduct/crosslinking levels result is “greatly enhanced levels of adducts”. The “enhancement of adduct levels” value in experiment [1] (Adriamycin (6 μm) 4 hr, AN-9 (125 μM) administered 5-24 hr prior to Adriamycin) was “no enhancement of adduct levels”. The “level of DNA adducts (percentage of double stranded DNA)” value in experiment [1] was “dramatic increases in the level of DNA adducts”. Also, the “effect on the ability of barminomycin to induce DNA crosslinks” value in experiment [1] (barminomycin 0-20 nM, 12,500-fold excess of AN-9, added after or 2 hr before barminomycin) is listed as “no effect”. Further, in experiment [3], the “adduct levels compared to Adriamycin alone” value is recorded as “enhanced adduct levels” and the “relative effectiveness in activating adduct formation” value is on record as “most effective”. For the same compound, in experiment [3] (4 μM [14C] Adriamycin, 500 μM AN-9), the “total Adriamycin added to cells incorporated into DNA adducts” value is listed as “approximately 5%”. In experiment [3] (setting [7]), the “adduct levels relative to the 1:20-1:25 ratio” value is recorded as “approximately 10 fold” and the “potentiation of Adriamycin adduct levels” value is recorded as “approximately 100 fold”. Besides, the Adriamycin adducts in experiment [3] (4 μM [14C] Adriamycin, AN-9 added 2 hr after, further 2 hr, Adriamycin:AN-9 1:20-1:25) was 10 adducts per 10 kb. In addition, the “enhancement of adduct formation” value in experiment [3] (4 μM [14C] Adriamycin, AN-9 added 2 hr after, Adriamycin:AN9 1:1-1:5) is reported as “poor”. Further, in experiment [3] (setting [8]), the “levels of Adriamycin adducts” value was 1.7 /10 kb and the “loss of adducts compared to Adriamycin alone” value is given as 40%. For the same compound, the “enhancement of adducts compared to Adriamycin alone” value in experiment [3] (6 μM [14C]-Adriamycin 4 hr, AN-9 added 2 hr after Adriamycin) was “approximately 20 fold”. For the same compound, the “level of Adriamycin adducts” value in experiment [3] (41M [14C]-Adriamycin 4 hr, 100 μM AN-9 2 hr after Adriamycin) is around 24 per 10 kb. In experiment [3] (41M [14C]-Adriamycin 4 hr, 100 μM AN-9 2 hr prior to Adriamycin), the “level of Adriamycin adducts” value is recorded as around 3.5 per 10 kb. The “potentiation of the level of Adriamycin adducts” value in experiment [3] (41M [14C]-Adriamycin 4 hr, 100 μM AN-9, vs Adriamycin alone) is given as “up to 15 fold”. Moreover, in experiment [3] (41M [14C]-Adriamycin 4 hr, 100 μM AN-9 simultaneously), the “level of Adriamycin adducts” value is “approximately 12 per 10 kb”. Further, in experiment [4], the “level of DNA adducts (percentage of double stranded DNA)” value is reported as “dramatic increases in the level of DNA adducts”.
Regarding `CCCC(=O)OC(C)OP(=O)(OCC)OCC` (stereo not drawn) [AN-88, 1-Butyroyloxyethyldiethyl Phosphate], in experiment [3], the “adduct levels compared to Adriamycin alone” value is on record as “reinforced the concept that it was the released formaldehyde which was solely responsible for increased adduct formation”.
For the compound `CCC(=O)OC(C)OC(=O)CC` [AN-188, Ethylidene Dipropionate], in experiment [3], the “adduct levels compared to Adriamycin alone” value is reported as “reinforced the concept that it was the released formaldehyde which was solely responsible for increased adduct formation”.
On to `CCCC(=O)O` [Butyric acid, reference compound], for which the “increase in Adriamycin adduct levels” value in experiment [3] (6 μM [14C]-Adriamycin 4 hr, sodium butyrate (1 mM) 16 hr prior, 2 hr prior, simultaneously or 2 hr after) is reported as “no significant increases in adduct levels”.
Turning to `COc1cccc2c1C(=O)c1c(O)c3c(c(O)c1C2=O)C[C@@](O)(C(=O)CO)C[C@@H]3O[C@H]1C[C@H](N)[C@H](O)[C@H](C)O1` [Adriamycin, reference compound], the “level of DNA adducts (percentage of double stranded DNA)” value in experiment [1] and in experiment [4] was “no adducts were detected” in each case. In addition, the “levels of Adriamycin adducts” value in experiment [3] (6 μM [14C]-Adriamycin alone 4 hr) is given as 2.8 /10 kb. Further, in experiment [3] (41M [14C]-Adriamycin 4 hr, absence of AN-9), the “level of Adriamycin adducts” value is on record as “approximately 1.5 per 10 kb”. For the same compound, in experiment [5], the Relative survival amounted to 1.00 ± 0.12. Besides, the “half-life of Adriamycin adducts” value in experiment [6] was 5 to 40 h.
Take `CCCC(=O)OCOP(=O)(OCC)OCC` [AN-7, Butyroyloxymethyldiethyl Phosphate]: in experiment [3], the “adduct levels compared to Adriamycin alone” value is reported as “enhanced adduct levels” and the “relative effectiveness in activating adduct formation” value is on record as “good activity”.

Values taken from US20040110727A1, “Aldehyde-releasing compounds” (priority 2000, published 2004).
